Results reported in ChEMBL document CHEMBL1201862, “PubChem BioAssay data set” (2004).
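Each compound was tested at five concentrations against cells in 96-well plates for 48 hours. At the GI50, growth is halved.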 The source made the active and inactive calls. Rule as the data show it: active = GI50 up to about 1.1 µM and inactive = higher.

How the values were obtained:
Experiment in all cases: growth of human tumour cells (NCI), 48 h
786-0 = system: 786-0
A549 = system: A549
EKVX = system: EKVX
HCT-15 = system: HCT-15
K562 = system: K562
M14 = system: M14
NCI-H460 = system: NCI-H460
NCI-H522 = system: NCI-H522
OVCAR-8 = system: OVCAR-8
RXF 393 = system: RXF 393
SK-MEL-5 = system: SK-MEL-5
SNB-19 = system: SNB-19
SR = system: SR
T47D = system: T47D
TK-10 = system: TK-10
UACC-257 = system: UACC-257
COLO 205 = system: COLO 205
SK-OV-3 = system: SK-OV-3
HCC 2998 = system: HCC 2998

SMILES | GI50 (786-0) | GI50 (A549) | GI50 (EKVX) | GI50 (HCT-15) [µM] | GI50 (K562) | GI50 (M14) | GI50 (NCI-H460) | GI50 (NCI-H522) | GI50 (OVCAR-8) | GI50 (RXF 393) | GI50 (SK-MEL-5) | GI50 (SNB-19) | GI50 (SR) | GI50 (T47D) | GI50 (TK-10) | GI50 (UACC-257) | GI50 (COLO 205) | GI50 (SK-OV-3) | GI50 (HCC 2998)
COc1ccc(CC(O)CN2CCOCC2)cc1 (configuration not stated) | > 100 µM (inactive) | > 100 µM (inactive) | > 100 µM (inactive) | > 100 | > 100 µM (inactive) | > 100 µM (inactive) | > 100 µM (inactive) | > 100 µM (inactive) | > 100 µM (inactive) | > 100 µM (inactive) | > 100 µM (inactive) | > 100 µM (inactive) | > 100 µM (inactive) | > 100 µM (inactive) | > 100 µM (inactive) | > 100 µM (inactive) | – | – | –
O=P(OCc1ccccc1)(OCc1ccccc1)C(O)/C=C/c1ccccc1 (configuration not stated) | 17.7 µM (inactive) | 32.9 µM (inactive) | 33.3 µM (inactive) | 36.8 | 34.2 µM (inactive) | 18.1 µM (inactive) | – | 23.8 µM (inactive) | 24 µM (inactive) | 33.8 µM (inactive) | 19.3 µM (inactive) | 23 µM (inactive) | 19.9 µM (inactive) | 33.7 µM (inactive) | – | 17 µM (inactive) | 21.3 µM (inactive) | 45.1 µM (inactive) | –
O=C(C/N=C(\CN(c1ccccc1)c1ccccc1)Oc1ccc(Cl)cc1Cl)n1ccnc1 | > 100 µM (inactive) | > 100 µM (inactive) | > 100 µM (inactive) | > 100 | > 100 µM (inactive) | > 100 µM (inactive) | > 100 µM (inactive) | – | > 100 µM (inactive) | > 100 µM (inactive) | > 100 µM (inactive) | > 100 µM (inactive) | > 100 µM (inactive) | > 100 µM (inactive) | > 100 µM (inactive) | > 100 µM (inactive) | > 100 µM (inactive) | > 100 µM (inactive) | –
O=S(=O)(O)c1ccc(/N=N/c2ccc(/N=N/c3c(O)c(S(=O)(=O)O)cc4cc(S(=O)(=O)O)ccc34)cc2)cc1 | > 100 µM (inactive) | > 100 µM (inactive) | > 100 µM (inactive) | > 100 | > 100 µM (inactive) | > 100 µM (inactive) | > 100 µM (inactive) | > 100 µM (inactive) | > 100 µM (inactive) | > 100 µM (inactive) | > 100 µM (inactive) | > 100 µM (inactive) | – | > 100 µM (inactive) | > 100 µM (inactive) | > 100 µM (inactive) | > 100 µM (inactive) | > 100 µM (inactive) | > 100 µM (inactive)
Fc1cc(F)c(F)c(S)c1F | > 100 µM (inactive) | 36.6 µM (inactive) | 25.9 µM (inactive) | 59.6 | 57.4 µM (inactive) | > 100 µM (inactive) | > 100 µM (inactive) | 15.5 µM (inactive) | 41.1 µM (inactive) | 23.7 µM (inactive) | > 100 µM (inactive) | > 100 µM (inactive) | – | > 100 µM (inactive) | > 100 µM (inactive) | > 100 µM (inactive) | > 100 µM (inactive) | 65.6 µM (inactive) | 34.4 µM (inactive)
O=C(O)CCC(NC(=O)/C(=C/c1ccccc1)NC(=O)c1ccccc1)C(=O)O (configuration not stated) | > 100 µM (inactive) | > 100 µM (inactive) | > 100 µM (inactive) | > 100 | > 100 µM (inactive) | > 100 µM (inactive) | > 100 µM (inactive) | > 100 µM (inactive) | > 100 µM (inactive) | > 100 µM (inactive) | > 100 µM (inactive) | > 100 µM (inactive) | – | > 100 µM (inactive) | > 100 µM (inactive) | > 100 µM (inactive) | > 100 µM (inactive) | > 100 µM (inactive) | > 100 µM (inactive)
Cc1cn(C2C=CC(COP(=O)(OCc3ccc([N+](=O)[O-])o3)N(C)CCCCCl)O2)c(=O)[nH]c1=O (configuration not stated) | 10.9 µM (inactive) | 10.9 µM (inactive) | – | 16.6 | 2.08 µM (inactive) | 4.69 µM (inactive) | 10 µM (inactive) | 1.85 µM (inactive) | 13.9 µM (inactive) | 2.38 µM (inactive) | 1.22 µM (inactive) | 6.58 µM (inactive) | 1.89 µM (inactive) | 1.57 µM (inactive) | 16.6 µM (inactive) | 5.55 µM (inactive) | 2.4 µM (inactive) | 11.7 µM (inactive) | –
Cc1ccc(Cc2n[nH]c(=O)n2N2C(=O)c3ccccc3C2=O)cc1 | > 100 µM (inactive) | > 100 µM (inactive) | > 100 µM (inactive) | > 100 | > 100 µM (inactive) | > 100 µM (inactive) | > 100 µM (inactive) | – | > 100 µM (inactive) | – | > 100 µM (inactive) | > 100 µM (inactive) | > 100 µM (inactive) | > 100 µM (inactive) | > 100 µM (inactive) | > 100 µM (inactive) | > 100 µM (inactive) | – | > 100 µM (inactive)
Cc1ccc(Cc2nnc(S)[nH]2)cc1 | 75.3 µM (inactive) | 84.7 µM (inactive) | > 100 µM (inactive) | > 100 | 94.8 µM (inactive) | > 100 µM (inactive) | 78.2 µM (inactive) | – | 79.4 µM (inactive) | – | 74.6 µM (inactive) | > 100 µM (inactive) | > 100 µM (inactive) | 40.8 µM (inactive) | > 100 µM (inactive) | > 100 µM (inactive) | > 100 µM (inactive) | > 100 µM (inactive) | > 100 µM (inactive)
COc1ccc(/C=N/n2c(Cc3ccc(Cl)cc3)n[nH]c2=O)c(OC)c1 | 22.4 µM (inactive) | 27.4 µM (inactive) | 33.1 µM (inactive) | 36.3 | > 100 µM (inactive) | 94.8 µM (inactive) | > 100 µM (inactive) | 16 µM (inactive) | 33 µM (inactive) | 19.1 µM (inactive) | > 10 µM (inactive) | 20.7 µM (inactive) | – | 69 µM (inactive) | 18.2 µM (inactive) | 41.1 µM (inactive) | > 100 µM (inactive) | 26.1 µM (inactive) | 44.6 µM (inactive)
C=CCc1oc(C)nc1CCCC | > 100 µM (inactive) | > 100 µM (inactive) | > 100 µM (inactive) | > 100 | > 100 µM (inactive) | > 100 µM (inactive) | > 100 µM (inactive) | > 100 µM (inactive) | > 100 µM (inactive) | > 100 µM (inactive) | > 100 µM (inactive) | 49.3 µM (inactive) | – | > 100 µM (inactive) | > 100 µM (inactive) | > 100 µM (inactive) | > 100 µM (inactive) | > 100 µM (inactive) | > 100 µM (inactive)
COc1cc(/C=C2\C(=O)N(c3ccccc3Cl)C(c3ccccc3)S2(=O)=O)cc(OC)c1OC (configuration not stated) | 31.2 µM (inactive) | 36.8 µM (inactive) | 41.4 µM (inactive) | 44.7 | 22 µM (inactive) | 31.9 µM (inactive) | 52.2 µM (inactive) | 20.9 µM (inactive) | 45.8 µM (inactive) | 19.5 µM (inactive) | 18.6 µM (inactive) | 34.7 µM (inactive) | – | 32.8 µM (inactive) | 62.7 µM (inactive) | 51.1 µM (inactive) | 36.4 µM (inactive) | 30.7 µM (inactive) | > 100 µM (inactive)
